Experiments:
[1] = Hepatocyte stability assay, human; type: in vitro ADME; settings: 10 μM compound, 0.5×10^6 cells/mL, 60 min; for CIint: Human hepatocytes; for half-life at 10 μM: cryo-preserved hepatocytes, read-out: T½
Source text: (§1) Defrosted cryo-preserved hepatocytes (viability >70%) were used to determine the metabolic stability of a compound via calculation of intrinsic clearance (CIint; a measure of the removal of a compound from the liver in the absence of blood flow and cell binding). Clearance data are particularly important for in vitro work as they can be used in combination with in vivo data to predict the half-life and oral bioavailability of a drug.
(§2) The metabolic stability in hepatocytes assay involved a time-dependent reaction using both positive and negative controls. The cells must be pre-incubated at 37° C. then spiked with test compound (and positive control); samples taken at pre-determined time intervals were analysed to monitor the change in concentration of the initial drug compound over 60 minutes. A buffer incubation reaction (with no hepatocytes present) acted as a negative control and two cocktail solutions, containing compounds with known high and low clearance values (verapamil/7-hydroxycoumarin and propranolol/diltiazem), acted as positive controls. • 1. The assay was run with a cell concentration of 0.5×10^6 cells/mL in Leibovitz buffer. • 2. All compounds and controls were run in duplicate. • 3. Compound concentration was 10 μM. • 4. All compounds and controls were incubated with both cells and buffer to show turnover is due to hepatic metabolism. • 5. All wells on the incubation plate had 326.7 μL of either cells or buffer added. • 6. Prior to assay, cell and buffer-only incubation plates were preincubated for 10 mins at 37° C. • 7. The assay was initiated by adding compounds, 3.3 μL of 1 mM in 10% DMSO-90% Buffer; final DMSO concentration is 0.1%. • 8. Samples were taken at regular timepoints (0, 5, 10, 20, 40, 60 min) until 60 mins. • 9. Sample volume was 40 μL and added to 160 μL of crash solvent (acetonitrile with internal standard) and stored on ice. • 10. At the end of the assay, the crash plates were centrifuged at 3500 rpm for 20 mins at 4° C. • 11. 80 μL of clear supernatant was removed and mixed with 80 μL of deionised water before being analysed by LC-MS/MS.
(§3) Raw LC-MS/MS data were exported to, and analysed in, Microsoft Excel for determination of intrinsic clearance. The percentage remaining of a compound was monitored using the peak area of the initial concentration as 100%. Intrinsic clearance and half-life values were calculated using a graph of the natural log of percentage remaining versus the time of reaction in minutes.

IL-1β = assay: THP-1 AlphaLISA IL-1β cytokine assay (PMA-differentiated THP-1, LPS then nigericin); type: cell-based; settings: 30 min pre-incubation, LPS 24 hr, nigericin 1 hour
Method: (§4) Measuring Inhibitory Effects on IL-1β, and IL-6 Cytokine Output from THP-1s
(§5) The cytokine inhibition profiles of compounds of formula (I) were determined in a differentiated THP-1 cell assay. All assays were performed in RPMI-1640 growth medium (Gibco), supplemented with 10% fetal bovine serum (FBS; Gibco), 1% penicillin-streptomycin and 1% sodium pyruvate unless specified otherwise. The IL-1β and IL-6 cytokine inhibition assays were each run in a background of differentiated THP-1 cells as described below. All reagents described were from Sigma-Aldrich unless specified otherwise. Compounds were prepared as 10 mM DMSO stocks.
(§6) THP-1 cells were expanded as a suspension up to 80% confluence in appropriate growth medium. Cells were harvested, suspended, and treated with an appropriate concentration of phorbol 12-myristate 13-acetate (PMA) over a 72 hr period (37° C./5% CO2).
(§7) Following 72 hrs of THP-1 cell incubation, cellular medium was removed and replaced with fresh growth media containing 1% of FBS. Working concentrations of compounds were prepared separately in 10% FBS treated growth medium and pre-incubated with the cells for 30 minutes (37° C./5% CO2). Following the 30 minute compound pre-incubation, THP-1s were treated with an appropriate concentration of LPS and the THP-1s were subsequently incubated for a 24 hr period (37° C./5% CO2). An appropriate final concentration of Nigericin was then dispensed into the THP-1 plates and incubated for 1 hour (37° C./5% CO2) before THP-1 supernatants were harvested and collected in separate polypropylene 96-well holding plates.
(§8) Reagents from each of the IL-1β and IL-6 commercial kits (Perkin Elmer) were prepared and run according to the manufacturer's instructions. Subsequently, fluorescence signal detection in a microplate reader was measured (EnVision® Multilabel Reader, Perkin Elmer).
(§9) Percentage inhibition was calculated per cytokine by normalizing the sample data to the high and low controls used within each plate (+/−LPS respectively).

IL-6 = assay: THP-1 AlphaLISA IL-6 cytokine assay (PMA-differentiated THP-1, LPS then nigericin); type: cell-based; settings: Homo sapiens; differentiated THP-1 cells; 30 min pre-incubation, LPS 24 hr, nigericin 1 hour
Method: as §4, §5, §6, §7, §8, §9

[2] = Hepatocyte stability assay, mouse; type: in vitro ADME; settings: 10 μM compound, 0.5×10^6 cells/mL, 60 min; for CIint: Mouse hepatocytes; for half-life at 10 μM: cryo-preserved hepatocytes, read-out: T½
Source text: as §1, §2, §3

NRF2 = NRF2 activation assay (DiscoverX PathHunter NRF2 translocation kit, U2OS cells); type: cell-based; settings: Homo sapiens; for Emax: U2OS, normalised to dimethyl fumarate high control; for EC50: U2OS PathHunter cells, 6 hours
[3] = Homo sapiens, THP-1, differentiated THP-1 cells

Row | Compound | CIint [1] [μL min^−1 10^−6 cells] | half-life at 10 μM [1] [min] | IC50 (IL-1β; [3]) [µM] | IC50 (IL-1β; differentiated THP-1 cells) [µM] | IC50 (IL-6) [µM] | CIint [2] [μL min^−1 10^−6 cells] | half-life at 10 μM [2] [min] | Emax (NRF2; +GSH) [%] | Emax (NRF2; −GSH) [%] | EC50 (NRF2; +GSH) [µM] | EC50 (NRF2; −GSH) [µM] | IC50 (IL-1β; Homo sapiens, differentiated THP-1 cells) [µM]
1 | C=C(CC(=O)NCCN1CCOCC1)C(=O)OC1(c2ccc(C(F)(F)F)cc2)CCC1 [Example 13, 1-(4-(trifluoromethyl)phenyl)cyclobutyl 2-methylene-4-((2-morpholinoethyl)amino)-4-oxobutanoate] | 126 | 12 | 6.5 | 8.5 | 8.1 | 516 | 4 | 84 | 174 | 48 | 38.8 | –
2 | C=C(CC(=O)NC1CCN(C)CC1)C(=O)OC1(c2ccc(C(F)(F)F)cc2)CCC1 [Example 14, 1-(4-(trifluoromethyl)phenyl)cyclobutyl 2-methylene-4-((1-methylpiperidin-4-yl)amino)-4-oxobutanoate] | 40 | 38 | 5.2 | – | 3.9 | 108 | 12 | 95 | 80 | 49.4 | 14.6 | –
3 | C=C(CC(=O)NCc1ncc[nH]1)C(=O)OC1(c2ccc(C(F)(F)F)cc2)CCC1 [Example 15, 1-(4-(trifluoromethyl)phenyl)cyclobutyl 4-(((1H-imidazol-2-yl)methyl)amino)-2-methylene-4-oxobutanoate] | 92 | 14 | 5.3 | – | 7.3 | 508 | 3 | 86 | 131 | 51.3 | 26.3 | –
4 | C=C(CC(=O)NC1CS(=O)(=O)C1)C(=O)OC1(c2ccc(C(F)(F)F)cc2)CCC1 [Example 18, 1-(4-(trifluoromethyl)phenyl)cyclobutyl 4-((1,1-dioxidothietan-3-yl)amino)-2-methylene-4-oxobutanoate] | 31 | 52 | 5.2 | – | 3.8 | 92 | 14 | 70 | 90 | 39.4 | 14.7 | –
5 | C=C(CC(=O)NCCO)C(=O)OC1(c2ccc(C(F)(F)F)cc2)CCC1 [Example 19, 1-(4-(trifluoromethyl)phenyl)cyclobutyl 4-((2-hydroxyethyl)amino)-2-methylene-4-oxobutanoate] | 32 | 48 | 2.5 | – | 3.8 | 161 | 13 | 102 | 210 | 50.7 | 40.2 | –
6 | C=C(CC(=O)NC1CCOCC1)C(=O)OC1(c2ccc(C(F)(F)F)cc2)CCC1 [Example 20, 1-(4-(trifluoromethyl)phenyl)cyclobutyl 2-methylene-4-oxo-4-((tetrahydro-2H-pyran-4-yl)amino)butanoate] | 85 | 18 | 2.9 | – | 2.6 | 668 | 3 | 63 | 101 | 31.4 | 14.4 | –
7 | C=C(CC(=O)NCC(N)=O)C(=O)OC1(c2ccc(C(F)(F)F)cc2)CCC1 [Example 21, 1-(4-(trifluoromethyl)phenyl)cyclobutyl 4-((2-amino-2-oxoethyl)amino)-2-methylene-4-oxobutanoate] | 37 | 42 | 7.2 | – | 3.9 | 100 | 21 | 86 | 184 | 55 | 38 | –
8 | C=C(CC(=O)OCC(=O)O)C(=O)OC1(c2ccc(C(F)(F)F)cc2)CCC1 [Example 22, 2-((3-((1-(4-(trifluoromethyl)phenyl)cyclobutoxy)carbonyl)but-3-enoyl)oxy)acetic acid] | 7 | 204 | – | – | > 31.6 | 392 | 4 | 45 | 100 | 41.1 | 40 | 15.2
9 | C/C(=C\C(=O)O)C(=O)OC1(c2ccc(C(F)(F)F)cc2)CCC1 [Example 23, 3-methyl-4-oxo-4-(1-(4-(trifluoromethyl)phenyl)cyclobutoxy)but-2-enoic acid] | <3 | > 460 | 4 | – | > 100 | <3 | > 460 | 4 | 39 | > 100 | 2.8 | –

Reference: US20240360067A1, “DERIVATIVES OF ITACONIC ACID AND THEIR USE AS ANTI-INFLAMMATORY AGENTS” (Sitryx Therapeutics Limited, priority 2021, published 2024)
